Series [1] concerns MDA-MB-231. Put plainly: Cell viability (MTT assay) in TNBC cell line MDA-MB-231. The series is classed as cell-based. The conditions noted are these: MDA-MB-231, MTT assay, 72 hours, mean ± s.e.m., n = 3. The protocol: Cell Culture. All cell lines were purchased from ATCC and routinely grown in a humidified incubator at 37° C. with 5-10% CO2. MDA-MB-468, MDA-MB-231, MDA-MB-175, MRCS, RPE-NEO, HCT116, and K562N were grown in DMEM supplemented with 10% FBS, 1% amphotericin and 1% penicillin/streptomycin. A2780 cells were grown in RPMI supplemented with 10% FBS, 1% amphotericin, and 1% penicillin/streptomycin, and 4 mM glutamine. All supplements along with PBS and trypsin-EDTA were purchased from Corning Inc. and used as is.
Cell Viability of AuTri-1-10 (Adherent Cell Lines). The cell viability of all 10 complexes were performed in MDA-MB-231. Additionally, AuTri-9 was evaluated in the following: MDA-MB-175, MA-MB-468, A2780, HCT116, OVCAR8 and MRCS. Cells were grown to confluency and trypsin was added to detach and harvest cells. The cells were washed with 2 mL of PBS and suspended in 10 mL of the appropriate media. The cells were centrifuged at 2000 rpm for 5 minutes and the pellet washed with 2 mL of PBS then suspended in 5 mL of the appropriate media. The cells were plated at a density of 2,000 cells/well in a 96-well clear bottom plate and allowed to adhere overnight at 37° C. with 5-10% CO2. The compounds were prepared as a stock in DMSO and used fresh. The compounds were added at seven concentrations (<1% DMSO) with a 3× serial dilution starting at 50 μM for the highest concentration and incubated at 37° C. for 72 h with 5-10% CO2. 1% DMSO were added to control wells as the vehicle control. The medium was removed and a solution of MTT (100 μL, prepared by dissolving MTT at 5 mg/mL and diluting by 10x with DMEM) was added to each well and incubated for 4 h at 37° C. with 5-10% CO2. The dye was removed from each well and 100 μL of DMSO was added to induce cell lysis. The plates were read using a Genios plate reader (λ=570 nm).
(Tetrazolium dyes change colour on reduction, which living cells bring about.)

For series [2] the following is noted: based on gold; cited from earlier work.
For series [3], the system named is MDA-MB-231. Put plainly: Transmission electron microscopy of mitochondrial morphology. The series is classed as cell-based. The conditions noted are these: AuTri-9 10 μM for 1 h. The protocol: Transmission Electron Microscopy. MDA-MB-231 cells were seeded in 6 well plates and allowed to grow to 85% confluency. The cells were then treated with AuTri-9 at a concentration of 10 μM (<1% DMSO) for 1 h at 37° C. Growth media were removed and immediately and added 3% glutaraldehyde at 4° C. in 0.1 M Sorenson's or Cacodylate Buffer. After 5 minutes remove fix and replace with fresh fixative, leave for 45 min-1 hr at 4° C., washed in 0.1 M buffer w/5% sucrose 4×, 5 minutes each. Post fix, the cells were stained with 1% OsO4 in 0.1 M buffer for 1 hr at 4° C. and washed in 0.1 M buffer 1×. The cells were dehydrated in graded ethanols, 5 minutes each, from 50% through 100% and absolute ethanol (2×) at 4° C. After the last alcohol wash remove the residual alcohol with a small pipette and immediately add straight resin (14.5 g Eponate 12, 8.0 g DDSA, 7.15 g NMA, and 0.85 gm BDMA) to the dish. Swirl the dish and then remove as much of the resin, (which may contain residual alcohol), with a plastic pipette being careful not to disturb the cell layer. Then add straight resin 2× for 1-2 hours and place under the lamp, on a shaker. Pour off the 2nd straight resin wash, let the plate drain well (leaving a layer of resin on the bottom) and invert labeled beem capsules into each well that have had the conical ends removed. […]

What is called IC50 is the concentration that gives 50% inhibition. The low end stands for higher potency, the high end for lower potency.

In the series with MDA-MB-231 [1] (Homo sapiens), `c1cnc2c(c1)ccc1cccnc12` [1,10-phenantrholine] had a concentration for half-maximal inhibition (IC50) of 7.21 ± 1.68 µM.
Same read-out and setting: in the case of `Cc1ccnc2c1ccc1c(C)ccnc12` [4,7-dimethylphenanthroline] it was 14.1 ± 2.58 µM.
As to `CC(=O)OC[C@H]1O[C@@H]([S-])[C@H](OC(C)=O)[C@@H](OC(C)=O)[C@@H]1OC(C)=O.CCP(CC)CC.[Au+]` [Auranofin], in series [2], the “MTD (maximum tolerated dose)” value was 12 mg/kg. In the series on MDA-MB-231 [1], half-maximal inhibition (IC50) was put at 1.31 ± 0.15 µM.
In the series with MDA-MB-231 [1], `c1ccc(-c2ccnc3c2ccc2c(-c4ccccc4)ccnc23)cc1` [Bathophenanthroline] returned an IC50 of 7.48 ± 1.64 µM.
Still for that read-out and setting: in the case of `c1ccc(-c2ccccn2)nc1` [Bipyridine] it was 17.5 ± 0.354 µM.
In the series with MDA-MB-231 [1], `N.N.[Cl][Pt][Cl]` [Cisplatin] came in with a half-maximal inhibitory concentration (IC50) of 34.6 ± 0.783 µM.
As to `OO` [H2O2, hydrogen peroxide], the “mitochondrial morphology by TEM” value with MDA-MB-231 [3] was “distinct cytoplasmic swelling and membrane rupture (white star) is observed; however, the mitochondria structure remains intact”.
Compound `[F][Sb-]([F])([F])([F])([F])[F].[Na+]` [NaSbF6] gave a half-inhibitory concentration (IC50) in the series on MDA-MB-231 [1] greater than 50 µM.
On to `CN[C@@H]1C[C@H]2O[C@@](C)([C@@H]1OC)n1c3ccccc3c3c4c(c5c6ccccc6n2c5c31)C(=O)NC4` [staurosporine], for which the “mitochondrial morphology by TEM” value in the series on MDA-MB-231 [3] was “no distinct morphological changes to mitochondria”.

The values above are taken from patent US20240174703A1, “THREE-COORDINATE AU(I) PROBES AND USE IN SELECTIVELY DISRUPTING MITOCHONDRIA IN CANCER CELLS” (University of Kentucky Research Foundation, priority 2021, published 2024).
